How the values were obtained:
5'-nucleotidase [1] = biological target: T1, 5'-nucleotidase (Rattus norvegicus, UniProt P21588); assay: Inhibition of rat recombinant ecto-5'-nucleotidase expressed in african green monkey COS7 cells using adenosine monophosphate as substrate preincubated for 10 mins before substrate addition measured after 10 mins by capillary electrophoresis; format: cell-based, COS-7
T1 sequence (P21588 whole entry): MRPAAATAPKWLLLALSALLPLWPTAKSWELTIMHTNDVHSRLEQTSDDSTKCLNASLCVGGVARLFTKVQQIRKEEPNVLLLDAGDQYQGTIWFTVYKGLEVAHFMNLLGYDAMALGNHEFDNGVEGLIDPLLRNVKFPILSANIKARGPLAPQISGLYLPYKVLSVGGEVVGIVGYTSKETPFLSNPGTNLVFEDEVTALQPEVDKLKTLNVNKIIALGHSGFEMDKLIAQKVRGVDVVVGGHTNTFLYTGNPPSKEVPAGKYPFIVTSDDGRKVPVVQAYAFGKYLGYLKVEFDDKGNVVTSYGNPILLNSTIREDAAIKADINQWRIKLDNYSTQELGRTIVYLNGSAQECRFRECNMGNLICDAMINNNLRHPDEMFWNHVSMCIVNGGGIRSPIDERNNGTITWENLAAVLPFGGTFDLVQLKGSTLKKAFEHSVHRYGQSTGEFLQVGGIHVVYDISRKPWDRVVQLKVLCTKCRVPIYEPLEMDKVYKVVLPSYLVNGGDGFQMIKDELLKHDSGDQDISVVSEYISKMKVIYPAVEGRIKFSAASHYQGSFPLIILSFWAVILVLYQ

5'-nucleotidase [2] = biological target: T2, 5'-nucleotidase (Homo sapiens, UniProt P21589); assay: Inhibition of human recombinant ecto-5'-nucleotidase expressed in african green monkey COS7 cells using adenosine monophosphate as substrate preincubated for 10 mins before substrate addition measured after 10 mins by capillary electrophoresis; format: cell-based, COS-7
NCI-H157 [3] = assay: Cytotoxicity against human NCI-H157 cells at 100 uM after 24 hrs by sulforhodamine B assay; format: functional
HCEC = assay: Cytotoxicity against HCEC after 24 hrs by sulforhodamine B assay; format: cell-based; details: human
5'-nucleotidase [4] = biological target: T2, 5'-nucleotidase; assay: Inhibition of human recombinant ecto-5'-nucleotidase expressed in african green monkey COS7 cells using adenosine monophosphate as substrate at 1 mM preincubated for 10 mins before substrate addition measured after 10 mins by capillary electrophoresis; format: cell-based; details: COS-7
[5] = biological target: T3, 5'-nucleotidase (Rattus norvegicus) (UniProt P21588); assay: Inhibition of rat recombinant ecto-5'-nucleotidase expressed in african green monkey COS7 cells using adenosine monophosphate as substrate at 1 mM preincubated for 10 mins before substrate addition measured after 10 mins by capillary electrophoresis; format: cell-based; details: COS-7
T3 sequence (whole entry): T1 sequence (P21588 whole entry)

NCI-H157 [6] = assay: Cytotoxicity against human NCI-H157 cells at 10 uM after 24 hrs by sulforhodamine B assay; format: functional

T2 sequence (P21589 whole entry): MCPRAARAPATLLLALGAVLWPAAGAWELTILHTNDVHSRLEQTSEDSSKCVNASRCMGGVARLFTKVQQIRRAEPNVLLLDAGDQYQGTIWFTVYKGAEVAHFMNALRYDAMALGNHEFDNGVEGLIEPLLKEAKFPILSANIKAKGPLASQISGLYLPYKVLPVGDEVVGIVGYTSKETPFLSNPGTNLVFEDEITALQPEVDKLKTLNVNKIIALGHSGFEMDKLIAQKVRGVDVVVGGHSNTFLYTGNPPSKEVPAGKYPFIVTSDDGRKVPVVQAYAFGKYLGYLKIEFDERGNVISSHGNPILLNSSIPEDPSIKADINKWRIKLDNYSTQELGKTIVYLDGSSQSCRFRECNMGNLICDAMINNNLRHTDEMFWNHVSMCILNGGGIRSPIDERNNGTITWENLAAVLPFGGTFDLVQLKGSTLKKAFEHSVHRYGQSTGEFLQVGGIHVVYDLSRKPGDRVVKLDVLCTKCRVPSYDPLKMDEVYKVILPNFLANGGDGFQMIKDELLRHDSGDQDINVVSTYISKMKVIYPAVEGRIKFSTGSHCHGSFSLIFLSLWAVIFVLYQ

SMILES	IC50 (5'-nucleotidase [1]) [µM]	IC50 (5'-nucleotidase [2]) [µM]	inhibition (5'-nucleotidase [4]) [%]	inhibition [5] [%]	Activity (NCI-H157 [3]) [%]	Activity (HCEC)	Activity (NCI-H157 [6]) [%]
Nc1cc(S(=O)(=O)O)cc2cc(S(=O)(=O)O)cc(O)c12	76.6	21.8	–	–	<40	Non-toxic	–
CC1=NN(c2ccccc2)C(=O)C1 [EDARAVONE]	–	–	15	29	70	Non-toxic	40
Nc1ccc(S(=O)(=O)O)cc1	70.1	8.2	–	–	<40	Non-toxic	–
Cc1ccc2nc(-c3ccc(N)cc3)sc2c1S(=O)(=O)O	18.6	13.5	–	–	<40	Non-toxic	–
NC(=O)Nc1ccc2cc(S(=O)(=O)O)cc(O)c2c1	–	30.5	–	40	<40	Non-toxic	–
CC1=NN(c2ccc(S(=O)(=O)O)cc2)C(=O)C1	44.3	6.1	–	–	72	Non-toxic	40
NS(=O)(=O)O [SULFAMATE]	77.3	42.1	–	–	<40	Non-toxic	–
CC[C@]1(O)C[C@H]2CN(CCc3c([nH]c4ccccc34)[C@@](C(=O)OC)(c3cc4c(cc3OC)N(C=O)[C@H]3[C@@](O)(C(=O)OC)[C@H](OC(C)=O)[C@]5(CC)C=CCN6CC[C@]43[C@@H]65)C2)C1 [VINCRISTINE]	–	–	–	–	47	–	–

More lines, main results first:

IC50 (5'-nucleotidase [1]) [µM]	IC50 (5'-nucleotidase [2]) [µM]	inhibition (5'-nucleotidase [4]) [%]	inhibition [5] [%]	SMILES	Activity (NCI-H157 [3]) [%]	Activity (HCEC)	Activity (NCI-H157 [6]) [%]
31.6	41	–	–	Nc1c(O)cc(S(=O)(=O)O)c2cc([N+](=O)[O-])ccc12	<40	Non-toxic	–
10.4	1.32	–	–	Nc1ccc2cc(S(=O)(=O)O)cc(O)c2c1	<40	Non-toxic	–
–	–	35	20	Nc1cc(S(=O)(=O)[O-])cc2ccccc12.[Na+]	48	Non-toxic	–
–	–	43	28	Nc1ccc(S(=O)(=O)O)c2ccccc12	<40	Non-toxic	–
72.9	47.6	–	–	Nc1ccc(Nc2ccc([N+](=O)[O-])cc2)c(S(=O)(=O)O)c1	42	Non-toxic	–
–	–	4	27	Nc1c(S(=O)(=O)O)cc(Br)c2c1C(=O)c1ccccc1C2=O	<40	Non-toxic	–

— ChEMBL document CHEMBL3085736, “Identification of sulfonic acids as efficient ecto-5'-nucleotidase inhibitors” (Eur J Med Chem, 2013)
